Measured values as given in publication PMC5054364, “Neuroprotective pentapeptide CN-105 improves functional and histological outcomes in a murine model of intracerebral hemorrhage” (Scientific Reports, 2016).

Experiments:
[1] = test system: murine model of collagenase-induced ICH; test: F4/80 microglial staining and stereology after ICH; type: in vivo, C57BL/6J mice; settings: 5 days after ICH; 0.05 mg/kg i.v. at 4, 8 and 24 hours post ICH; vehicle 14593 ± 116, p = 0.003; mean ± standard error, n = 3–4
Experimental: Experiment 5. Microglial staining. A separate cohort of animals was randomized to vehicle (n = 4) or CN-105 (n = 4) groups and received tail vein injections at 4, 8, and 24 hours post ICH. Immunohistochemical microglial staining was performed and gliosis was quantified by stereology. One mice in vehicle group died within 1 day after injury and was excluded.
(§1) Intrastriatal collagenase injection was used to induce ICH in mice, as previously described. Briefly, the trachea was intubated after anesthesia induction with 4.6% isoflurane, and the lungs were mechanically ventilated with 1.5% isoflurane in a mixture of 30%/70% O2/N2. Rectal temperature was maintained at 37 °C ± 0.2 °C by circulating warm water in an underbody waterbed. The animal’s head was secured in a stereotactic frame, and a midline scalp incision was made. After exposing the skull, a burr hole was created 2.2 mm left lateral to bregma, and a 0.5 μL syringe needle (Hamilton, Reno, NV, USA) was advanced to a depth of 3 mm from cortex. Type IV-S Clostridial collagenase (Sigma, St. Louis, MO, USA) was injected over 2 minutes (0.075 U in 0.4 μL normal saline). […]
(§2) After anesthetic induction, mice underwent transcardial perfusion with 30 mL normal saline. […] Cells were counted using a Nikon 218912 light microscope interfaced with the StereoInvestigator software package (MicroBrightField, Williston, VT, USA). […]

[2] = test system: murine model of collagenase-induced ICH; test: Histological hemorrhage volume (H&E staining) after ICH; type: in vivo, C57BL/6J mice; settings: 0.05 mg/kg i.v. tail vein at 2, 6 and 24 hours post-ICH; saline 7.97 ± 0.97, p = 0.66; mean ± standard error, n = 3/group
Experimental: (§3) Experiment 2. Hematoma volume. Hemorrhage volume was assessed by magnetic resonance imaging (MRI) at 2 hours post ICH (before treatment) and 24 hours post ICH. 3 saline- and 3 CN-105-treated animals were perfused at 24 hours post ICH, and brain hematoxylin and eosin (H&E) staining was performed. CN-105 or saline was given by tail vein injection at 2, 6, and 24 hours post-ICH.
Intrastriatal collagenase injection was used to induce ICH in mice, as previously described. Briefly, the trachea was intubated after anesthesia induction with 4.6% isoflurane, and the lungs were mechanically ventilated with 1.5% isoflurane in a mixture of 30%/70% O2/N2. Rectal temperature was maintained at 37 °C ± 0.2 °C by circulating warm water in an underbody waterbed. The animal’s head was secured in a stereotactic frame, and a midline scalp incision was made. […]
Histological hematoma volume was measured at 24 hours after injury to coincide with maximum hematoma expansion. […] Lesion volume was measured by digitally sampling stained sections with an image analyzer (M2 Turnkey System, Imaging Research, Inc., St. Catharines, Ontario, Canada). Lesion volumes (mm^3) were computed as running sums of lesion area multiplied by the known interval between sections (400 μm) over the extent of the lesion, and expressed as an orthogonal projection.

[3] = test system: murine model of collagenase-induced ICH; test: Morris water maze testing after ICH; type: in vivo, C57BL/6J mice; settings: Days 29–32 after ICH, 0.05 mg/kg i.v. at 4, 8 and 24 hours post ICH, n = 14/group
Experimental: (§4) Experiment 4. Neurobehavioral assessment. Animals were randomized to vehicle (n = 14) or CN-105 (n = 14) groups, and evaluated for neurobehavioral function (neuroscore), vestibulomotor function (rotarod), and spatial learning (MWM). Mice received tail vein injections of vehicle or CN105 at 4, 8, and 24 hours post ICH.
as §1
The MWM[20] was used to assess the effects of therapeutic intervention on spatial learning and memory. […] Latency to find the platform was recorded by a computerized video tracking system (KeilSoft LLC, Chapel Hill, NC).

[4] = test system: murine model of collagenase-induced ICH; test: Brain water content (cerebral edema) after ICH; type: in vivo, C57BL/6J mice; settings: 24 hours after injury, 0.05 mg/kg i.v. at 2, 6 and 24 hours post ICH, mean ± standard error, n = 6–8/group
Experimental: Experiment 3. Brain water content. Brain water content was assessed at 24 hours post ICH in 8 saline- and 8 CN-105-treated animals. CN-105 or saline was given by tail vein injection at 2, 6, and 24 hours post ICH. Two animals randomized to CN-105 died at 4 and 6 hours post-ICH, and were excluded from further analyses.
as §1
Mice were anesthetized and euthanized at 24 hours after ICH to coincide with the point of maximum inflammatory changes. […] Cerebral edema was expressed as water content, calculated as a percentage of wet weight ([wet weight - dry weight]/[wet weight] x 100).

[5] = test system: murine model of collagenase-induced ICH; test: NeuN neuronal survival, stereology after ICH; type: in vivo, C57BL/6J mice; settings: ipsilateral, 33 days post ICH, 0.05 mg/kg i.v. at 4, 8 and 24 hours, n = 7/group
Description: Experiment 6. Neuronal survival. The hippocampus has been associated with spatial learning and memory. To determine whether histological outcome correlates with functional outcomes, neuronal density was quantified in the hippocampus and striatum of the mice (n = 7/group) in experiment 4 by stereology at 33 days post-ICH following MWM testing.
(§5) Intrastriatal collagenase injection was used to induce ICH in mice, as previously described. Briefly, the trachea was intubated after anesthesia induction with 4.6% isoflurane, and the lungs were mechanically ventilated with 1.5% isoflurane in a mixture of 30%/70% O2/N2. Rectal temperature was maintained at 37 °C ± 0.2 °C by circulating warm water in an underbody waterbed. The animal’s head was secured in a stereotactic frame, and a midline scalp incision was made. After exposing the skull, a burr hole was created 2.2 mm left lateral to bregma, and a 0.5 μL syringe needle (Hamilton, Reno, NV, USA) was advanced to a depth of 3 mm from cortex. Type IV-S Clostridial collagenase (Sigma, St. Louis, MO, USA) was injected over 2 minutes (0.075 U in 0.4 μL normal saline). After closing the incision, animals were allowed to recover spontaneous ventilation, and were then extubated and given free access to food and water.
CN-105 (Ac-VSRRR-amide) was synthesized by Polypeptide Inc. (San Diego, CA) to a purity of >99%, and was dissolved in normal saline. Using a murine model of traumatic brain injury, 0.05 mg/kg CN-105 was previously found to be the lowest dose that improved functional performance after injury (data not shown). Here, therefore, 100 μL 0.05 mg/kg CN-105 in saline, or vehicle, was administered via intravenous tail vein injection 3 times at pre-specified timepoints after ICH. Animals were gently restrained by a rodent restrainer (Harvard Apparatus, Holliston, MA) during each administration.
as §2

[6] = test system: murine model of collagenase-induced ICH; test: Neuroseverity score after ICH; type: in vivo, C57BL/6J mice; settings: 0.05 mg/kg i.v. at 4, 8 and 24 hours post ICH; p = 0.12; n = 14/group
Experimental: as §4, §5
CN-105 (Ac-VSRRR-amide) was synthesized by Polypeptide Inc. (San Diego, CA) to a purity of >99%, and was dissolved in normal saline. […]

[7] = CN-105 pharmacokinetics in brain and plasma (LC/MS); type: in vivo; settings: mice
Description: One rationale for creating the smaller apoE mimetic peptides was to enhance CNS penetration and possibility of noninvasive mechanisms of delivery (for example, intranasal). To define pharmacokinetic parameters, we performed initial non-GLP studies in mice using stable radioisotope labeled CN-105 peptide (MW of heavy CN-105 was 362.7 vs. 357.7). […] The total CNS exposure was 44%; of note, this is approximately 5 fold higher than prior apoE based mimetic peptides.
Experiment 1. CN-105 pharmacokinetics in Brain and Plasma. The concentration of CN-105 was determined at 1, 3, 10, 15, 30 and 60 minutes (n = 5/time point) post injection using LC/MS.
A protocol was developed in collaboration with the Duke University Core Proteomics and Metabolomics Shared Resource using LC/MS on a high-resolution accurate-mass instrument. […] After extraction, samples were dried down in Speed Vac and reconstituted in 25 uL of 1% ACN/0.1% TFA/0.02% HFBA and analyzed using a nanoAcquity LC (Waters) coupled to a Synapt G2 Q-ToF (Waters). Quantitative data was extracted as selected ion chromatograms for both the native ((M + 2H)^2+at m/z 357.7 and heavy-labeled form CN-105 at m/z 362.7). Quantitation was accomplished by using a ratio of the peak area of the analyte and internal standard which was fit to a 7-point calibration curve (plasma R^2 = 0.997 and brain R^2 = 0.999).

[8] = test system: murine model of collagenase-induced ICH; test: Rotarod testing (vestibulomotor function) after ICH; type: in vivo, C57BL/6J mice; settings: Days 1–5 after ICH; 0.05 mg/kg i.v. at 4, 8 and 24 hours post ICH; p = 0.0435; n = 14/group
Experimental: as §4, §1
An automated rotarod (Ugo Basile, Comerio, Italy) was used to assess the effects of therapeutic intervention on vestibulomotor function. […] The average time lapse to fall from the rotating cylinder in the second set of trials was recorded as baseline latency. […] Average latency to fall from the rod was recorded.

[9] = test system: murine model of collagenase-induced ICH; test: Hemorrhage volume by SWI MRI after collagenase-induced ICH; type: in vivo, C57BL/6J mice; settings: mean ± standard error, n = 3–4/group
Experimental: as §3
as §5, with “water. […]” for “water.”

With Ac-VSRRR-NH2 [CN-105, Ac-VSRRR-amide] the “number of F4/80-positive cells in the ipsilateral hippocampi” value [1] was 9327 ± 838 cells/mm^3, the “hemorrhage volume by H&E staining at 24 hours after ICH” value [2] was 8.43 ± 0.15 mm^3 and the “Morris water maze escape latencies versus vehicle” value ([3]; Day x Group p = 0.02) was “significantly lower latencies”. For the same substance, the “Morris water maze learning curves (learning slopes) versus vehicle” value ([3]; p = 0.01) was “significantly steeper learning curves”, the “brain water content, contralateral hemisphere” value ([4]; p = 0.64) was 78.70 ± 0.41% and the “brain water content, injured hemisphere” value ([4]; vehicle 80.67 ± 0.26, p = 0.029) was 79.57 ± 0.38%. The “NeuN-positive cell numbers, striatum” value ([5]; vehicle 25142 ± 5777, p = 0.27) was 21816 ± 5073 cells/mm^3, the “NeuN-positive cell numbers, dentate gyrus polymorphic region” value ([5]; vehicle 34919 ± 9378, p = 0.16) was 42109 ± 8439 cells/mm^3 and the “NeuN-positive cell numbers, CA3 region” value ([5]; vehicle 188719 ± 4780, p = 0.009) was 225773 ± 10841 cells/mm^3. The “neuroseverity scores, Day 1 to Day 5 after ICH versus vehicle” value [6] was “mild but not significant improvement”, the “AUC0–60 in brain” value ([7]; brain homogenate (urea in buffer), 0-60 minutes post injection, n = 5/time point, LC/MS) was 548 fmol·min/µL and the “total CNS exposure” value ([7]; brain versus plasma AUC0–60) was 44%. The “AUC0–60 in plasma” value ([7]; plasma, 0-60 minutes post injection, n = 5/time point, LC/MS) was 1253 fmol·min/µL, the half-life ([7]; mouse, non-GLP study, stable isotope labeled CN-105, plasma sampled 1-60 minutes post injection, n = 5/time point, LC/MS, read-out: terminal plasma half-life) was 27 min and the “rotarod motor functional recovery versus vehicle” value [8] was “significantly improved motor functional recovery”. For the same substance, the “hemorrhage volume by SWI MRI at 24 hours post ICH” value ([9]; 0.05 mg/kg i.v. tail vein at 2, 6 and 24 hours post-ICH, saline 10.77 ± 1.70, p = 0.82) was 10.14 ± 1.92 mm^3 and the “hematoma volume by MRI at 2 hours after ICH” value ([9]; 2 hours after ICH induction, prior to treatment (baseline of the CN-105 group)) was 9.93 ± 1.88 mm^3.
